Experimental data from ChEMBL document CHEMBL1201862, “PubChem BioAssay data set” (2004).
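1) Cells in 96-well plates. 2) Compound, 48 h, 5 concentrations. 3) Linear interpolation between surrounding doses. 4) Unreached endpoint = highest concentration. At the GI50, growth is halved.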 Activity calls are given as the source filed them. Rule as the data show it: active = GI50 up to about 1.1 µM and inactive = higher.

Key:
Assay in all cases: inhibition of tumour cell growth, NCI panel, 48 h
COLO 205 = system: COLO 205
EKVX = system: EKVX
HCC 2998 = system: HCC 2998
HOP-62 = system: HOP-62
HT-29 = system: HT-29
KM12 = system: KM12
LOX IMVI = system: LOX IMVI
MDA-MB-435 = system: MDA-MB-435
MDA-N = system: MDA-N
MOLT-4 = system: MOLT-4
OVCAR-4 = system: OVCAR-4
RXF 393 = system: RXF 393
SF-295 = system: SF-295
SF-539 = system: SF-539
SK-MEL-28 = system: SK-MEL-28
SK-MEL-2 = system: SK-MEL-2
SK-MEL-5 = system: SK-MEL-5
SN12C = system: SN12C
SNB-75 = system: SNB-75
UACC-62 = system: UACC-62

Measured: GI50

CN(C)C(=S)NC(=S)Nc1ccc2ccccc2c1
inactive: COLO 205 13.7 µM | EKVX 14.1 µM | HCC 2998 15.5 µM | HOP-62 18.4 µM | HT-29 12 µM | KM12 12.4 µM | LOX IMVI 6.64 µM | MDA-MB-435 18.8 µM | MDA-N 12.9 µM | MOLT-4 4.93 µM | OVCAR-4 24.7 µM | RXF 393 18.4 µM | SF-295 4.55 µM | SF-539 15.1 µM | SK-MEL-28 14.5 µM | SK-MEL-2 13.9 µM | SK-MEL-5 7.18 µM | SN12C 2.69 µM | SNB-75 24.3 µM | UACC-62 2.14 µM

CCOC(=O)/C(=C\NC(=S)Nc1ccc(OCC)cc1)C(=O)c1ccccc1
inactive: COLO 205 > 100 µM | EKVX > 100 µM | HCC 2998 > 100 µM | HOP-62 > 100 µM | HT-29 > 100 µM | KM12 > 100 µM | LOX IMVI > 100 µM | MDA-MB-435 > 100 µM | MDA-N > 100 µM | MOLT-4 > 100 µM | OVCAR-4 79.8 µM | RXF 393 > 100 µM | SF-295 > 100 µM | SF-539 > 100 µM | SK-MEL-28 > 100 µM | SK-MEL-2 > 100 µM | SK-MEL-5 > 100 µM | SN12C > 100 µM | SNB-75 44.2 µM | UACC-62 > 100 µM

CCOC(=O)/C=C(/C(=O)OCC)n1ccc(=O)n(Cc2cnnn2COCCOC(C)=O)c1=O
inactive: COLO 205 2.92 µM | EKVX 16.5 µM | HCC 2998 16.2 µM | HOP-62 > 73.1 µM | HT-29 17.5 µM | KM12 28.6 µM | LOX IMVI 17.1 µM | MDA-MB-435 16.6 µM | MDA-N 23.2 µM | MOLT-4 4.51 µM | OVCAR-4 20 µM | RXF 393 15.4 µM | SF-295 > 100 µM | SF-539 11 µM | SK-MEL-28 16.3 µM | SK-MEL-2 19.9 µM | SK-MEL-5 19.1 µM | SN12C 22.1 µM | SNB-75 41.2 µM | UACC-62 17.3 µM

O=C1CC(NC2CC(=O)c3c(Br)sc(Br)c32)c2c(Br)sc(Br)c21 (stereo not drawn)
inactive: COLO 205 3.04 µM | EKVX 3 µM | HCC 2998 17 µM | HOP-62 2.99 µM | HT-29 2.84 µM | KM12 1.99 µM | LOX IMVI 1.92 µM | MDA-MB-435 3.72 µM | MDA-N 2.06 µM | MOLT-4 2.26 µM | OVCAR-4 8.51 µM | RXF 393 3.38 µM | SF-295 13.6 µM | SF-539 1.27 µM | SK-MEL-28 7.85 µM | SK-MEL-2 3.51 µM | SK-MEL-5 5.96 µM | SN12C 1.56 µM | SNB-75 15.7 µM | UACC-62 11.9 µM

CC1=NN(c2nc(N)nc(/C(C#N)=C/c3cccn3-c3cc(Cl)cc(Cl)c3)n2)C(C)(C)C1
inactive: COLO 205 > 100 µM | EKVX > 100 µM | HCC 2998 > 100 µM | HOP-62 10.1 µM | HT-29 > 100 µM | KM12 > 100 µM | LOX IMVI 83 µM | MDA-MB-435 > 100 µM | MDA-N > 100 µM | OVCAR-4 > 100 µM | RXF 393 > 100 µM | SF-295 > 100 µM | SF-539 > 100 µM | SK-MEL-28 > 100 µM | SK-MEL-2 > 100 µM | SK-MEL-5 > 100 µM | SN12C 35.2 µM | SNB-75 17 µM | UACC-62 > 100 µM

COc1ccc(-c2nc(N(C)C)c3ccccc3n2)cc1
inactive: COLO 205 10.1 µM | EKVX 3.66 µM | HCC 2998 6 µM | HOP-62 16.6 µM | HT-29 5.51 µM | KM12 13.4 µM | LOX IMVI 11 µM | MDA-MB-435 15.3 µM | MDA-N 14.9 µM | MOLT-4 3.91 µM | OVCAR-4 32.6 µM | RXF 393 9.29 µM | SF-295 14.2 µM | SF-539 20.4 µM | SK-MEL-28 14.9 µM | SK-MEL-2 20.5 µM | SK-MEL-5 13.1 µM | SN12C 7.89 µM | SNB-75 13.5 µM | UACC-62 12.7 µM

O=S(=O)(O)c1c(Cl)cc(O)c2ncccc12
inactive: COLO 205 > 100 µM | EKVX > 100 µM | HCC 2998 > 100 µM | HOP-62 > 100 µM | HT-29 > 100 µM | KM12 > 100 µM | LOX IMVI > 100 µM | MDA-MB-435 > 100 µM | MDA-N > 100 µM | MOLT-4 > 100 µM | OVCAR-4 > 100 µM | RXF 393 > 100 µM | SF-295 > 100 µM | SF-539 > 100 µM | SK-MEL-28 > 100 µM | SK-MEL-2 > 100 µM | SK-MEL-5 > 100 µM | SN12C > 100 µM | SNB-75 > 100 µM | UACC-62 > 100 µM

C/N=c1\sc2nc(C#N)c(C#N)nc2n1C
inactive: COLO 205 16.4 µM | EKVX 18.5 µM | HCC 2998 25.5 µM | HOP-62 23.4 µM | HT-29 15.9 µM | KM12 27.5 µM | LOX IMVI 17.8 µM | MDA-MB-435 21 µM | MDA-N 22.4 µM | MOLT-4 22.8 µM | OVCAR-4 22.9 µM | RXF 393 18.7 µM | SF-295 18 µM | SF-539 38.7 µM | SK-MEL-28 29.2 µM | SK-MEL-2 16.5 µM | SK-MEL-5 19.1 µM | SN12C 37.9 µM | SNB-75 19 µM | UACC-62 18.3 µM

NC1CC(=O)c2csc(Br)c21 (stereo not drawn)
inactive: COLO 205 16.5 µM | EKVX 15.1 µM | HCC 2998 18.5 µM | HOP-62 24.4 µM | HT-29 19.6 µM | KM12 12.2 µM | LOX IMVI 15.6 µM | MDA-MB-435 12.9 µM | MDA-N 13.6 µM | MOLT-4 15.1 µM | OVCAR-4 16.5 µM | RXF 393 17.2 µM | SF-295 35.2 µM | SF-539 2.52 µM | SK-MEL-28 18.5 µM | SK-MEL-2 16 µM | SK-MEL-5 20.9 µM | SN12C 13.4 µM | SNB-75 23.1 µM | UACC-62 16.5 µM

Cc1cccc(C(C)C)c1NC(=O)C(=O)CC(=O)c1sc(Nc2ccccc2Cl)nc1C
inactive: COLO 205 29.9 µM | EKVX 52.2 µM | HCC 2998 11.6 µM | HOP-62 > 100 µM | KM12 23.1 µM | LOX IMVI 31.8 µM | MDA-MB-435 7.26 µM | MDA-N 9.79 µM | MOLT-4 25.6 µM | OVCAR-4 83.4 µM | RXF 393 40.6 µM | SF-295 12.9 µM | SF-539 4 µM | SK-MEL-28 > 100 µM | SK-MEL-2 12.8 µM | SK-MEL-5 13.5 µM | SN12C 64.9 µM | SNB-75 21.7 µM | UACC-62 42.4 µM
